Experimental data published in publication PMC11491346, “Molecular insights and inhibitory dynamics of flavonoids in targeting Pim-1 kinase for cancer therapy” (Frontiers in Pharmacology, 2024).

Target: Pim-1 kinase (Homo sapiens, UniProt P11309)
Assay: luminescence-based kinase assay (ADP to ATP, Ultra-Glo Luciferase), Pim-1 assay
Format: biochemical
Settings: Figures 10, 11 and 13
From the text: Enzyme activity was quantified using a luminescence-based kinase assay, which tracks the conversion of ADP to ATP, subsequently producing light via Ultra-Glo™ Luciferase. This luminescence is indicative of ADP levels and thus, enzyme activity. This method is particularly effective for analyzing the influence of various chemicals on different kinases, serving both initial screenings and specificity profiling.
The inhibitory concentration (IC50) values, expressed in micromolar (μM), were obtained from the Pim-1 assay. These values were converted to their corresponding negative logarithmic scale (pIC50) to facilitate a linear comparison using the following formula: pIC50=−log10 IC50 in M Where IC50 values were first converted from μM to molar (M) units before logarithmic transformation. Pulling force values, measured in pN, were sourced from the SMD experiments.

Sequence of Pim-1 kinase (P11309 whole entry): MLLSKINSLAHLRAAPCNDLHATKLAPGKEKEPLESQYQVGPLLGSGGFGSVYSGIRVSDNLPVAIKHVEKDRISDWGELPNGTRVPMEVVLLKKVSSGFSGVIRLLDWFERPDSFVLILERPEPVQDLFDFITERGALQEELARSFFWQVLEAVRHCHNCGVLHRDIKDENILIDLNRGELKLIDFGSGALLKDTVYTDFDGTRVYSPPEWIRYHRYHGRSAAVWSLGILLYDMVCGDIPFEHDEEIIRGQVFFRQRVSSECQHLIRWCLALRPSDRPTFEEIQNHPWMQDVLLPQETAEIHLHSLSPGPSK

Row | class as Pim-1 kinase inhibitor (in words) | SMILES
1 | could not inhibit Pim-1 kinase activity | O=c1cc(-c2ccccc2)oc2cccc(O)c12 [5-Hydroxyflavone]
2 | could not inhibit Pim-1 kinase activity | O=c1cc(-c2ccccc2)oc2ccc(O)cc12 [6-Hydroxyflavone]

Same assay, conditions: Figures 10, 11 and 13; listed as 7-ydroxyflavone

Row | SMILES | class as Pim-1 kinase inhibitor (in words)
3 | O=c1cc(-c2ccccc2)oc2cc(O)ccc12 [7-Hydroxyflavone] | could not inhibit Pim-1 kinase activity

Same assay, conditions: in vitro enzyme inhibition; read-out: Pim-1 kinase inhibitory activity IC50

Row | SMILES | IC50 [µM]
4 | O=c1c(O)c(-c2ccccc2)oc2ccccc12 [Compound 4, 3-Hydroxyflavone] | 35.1
5 | O=c1cc(-c2ccccc2)oc2cc(O)c(O)c(O)c12 [Compound 7] | 5.65

Results, then the compound that gave them:

Row | IC50 [µM] | SMILES
6 | 5.33 | O=c1cc(-c2ccccc2)oc2cc(O)cc(O)c12 [Compound 6]
7 | 1.81 | O=c1c(O)c(-c2ccccc2)oc2cc(O)cc(O)c12 [Compound 8, Galangin]
8 | 1.78 | O=c1c(O)c(-c2ccc(O)cc2)oc2cc(O)cc(O)c12 [Compound 9, Kaempferol]
9 | 5.28 | O=c1cc(-c2ccc(O)cc2)oc2cc(O)cc(O)c12 [Compound 10]
10 | 4.63 | O=c1cc(-c2ccc(O)c(O)c2)oc2cc(O)cc(O)c12 [Compound 11]
